Molecules are shown by their SMILES. Converted amounts (≈) assume the structure as drawn. Where two headings read alike, the source gives them in different places.

Data set [1] addresses T1, MK2 enzyme (Homo sapiens, UniProt P49137).
T1 construct: MK2 enzyme (active enzyme (peptide 46-end (Millipore))); purchased Millipore
As to the kind of experiment: MK2 enzyme activity, IMAP fluorescence polarization assay. It counts as biochemical. From the text:
In another assay the MK2 kinase activity can be determined by using an IMAP assay (Immobilized Metal Assay for Phosphochemicals—based coupled assay). IMAP is a homogeneous fluorescence polarization (FP) assay based on affinity capture of phosphorylated peptide substrates. IMAP uses fluorescein-labeled peptide substrates that, upon phosphorylation by a protein kinase, bind to so called IMAP nanoparticles, which are derivatized with trivalent metal complexes. […] In such an assay, MK2 phosphorylates a fluorescein-labeled peptide substrate (see example 14).
MK2 enzyme activity is measured using the IMAP (immobilized metal ion affinity-based fluorescence polarization) assay as outlined below.
The enzyme is diluted to 100 U/mL the day before use in KR buffer (10 mM Tris-HCl, 10 mM MgCl2, 0.01% Tween-20, 0.05% NaN3, 2 mM DTT, pH 7.2) and stored overnight at −20° C.
The dilutions in DMSO are then diluted 50-fold in KR-buffer of which 5 μl is used in the assay, leading to a final compound concentration range in the assay from 10 μM to 0.316 nM.
After 60 min incubation at room temperature in the dark the FP signal is read. Fluorescence at 535 nm is measured using parallel and perpendicular filters to determine differences in rotation due to binding of the phosphorylated substrate peptide to the beads. Values are calculated as percentage of the difference in readout (ΔmPi) of the controls with and without ATP. EC50 values are determined by curve fitting of the experimental results using Activity Base.

The nature of data set [2]: Solubility determination of MK2 inhibitors (kinetic aqueous solubility, UPLC). As to conditions: aqueous buffer (system solution from pION inc.), 22 °C, pH 7.4, aqueous buffer, kinetic from dmso stock. The class given is physicochemical. On the procedure:
The solubility can be determined using the Automated Kinetic Aqueous Solubility (AKASol) method, which is an HPLC-UV based method. The method is derived from the classical saturated shake-flask solubility method which has been adapted to the 96-well microtitre plate format, allowing the use of DMSO stock solutions. The solubility is determined by measuring the amount of compound in a saturated aqueous solution, quantified by an external calibration curve of the compound dissolved in DMSO. The solubility (mg/L) is measured at pH 7.4, at room temperature and the final concentration of DMSO in the sample solution is 1%.
The samples were prepared from 10 mM DMSO stock solutions. For each compound under investigation, a volume (9 μL) of the DMSO stock solution is transferred from the DMSO stock solution into 891 μL of buffer solution (system solution from pION inc.) in a 96 deep well plate, which equates to approximately 1% DMSO, using the Packard Multiprobe II robot liquid handling system. The pH of the buffer is manually adjusted at pH 7.4 by adding NaOH. This procedure is done in duplicate for each sample. After shaking for 24 h on a vortex mixer (Heidolph, Titramax 101) at 450 rpm and at room temperature (21-23° C.), 300 uL of the incubated sample is transferred from the deep well plate to a filter plate (PVDF, 0.45 um) on a vacuum manifold. To the filtrate (150 uL) 1-propanol (50 uL) is added to suppress precipitation and this solution is then analysed by UPLC. The solubility is determined using the calibration line previously prepared.
Preparation of the Standards and Built up of a Calibration Line
The calibration line is built with different concentrations of the test compound (standards), prepared from the same 10 mM DMSO stock solution. A volume (7 uL) from the same DMSO stock solution was diluted with DMSO (273 uL) leading to a solution with concentration of 0.25 mM. From this solution, three different injection volumes (0.2, 1, 1.8 uL) were injected on UPLC. The respective peak areas are plotted against amount of compound to build up the calibration line. The calibration line is used to determine the amount of dissolved compound in each sample, selecting the injection that gave peak areas closest to the peak area range of the calibration standards.

Where [3] appears, read: MK2 IMAP assay, 1 μM ATP, 30 min pre-incubation, 2 h room temperature, read-out: pEC50 value (converted).
The mark [4] stands for this setting: pH 7.4, room temperature, about 1% DMSO, 24 h shaking, read-out: solubility.
Setting [5] is: Table 1, compound of Formula (I) with spiro ring, MK2 IMAP assay, read-out: pEC50, Formula (I) (converted).
Setting [6] is: Table 1, compound of Formula (I) with spiro ring, pH 7.4, read-out: Solubility pH 7.4 (mg/L), Formula (I).
Setting [7] is: Table 1, compound of Formula (I) with spiro ring, MK2 IMAP assay.
The mark [8] stands for this setting: Table 1, comparison compound of Formula (XV) without spiro ring, pH 7.4, read-out: Solubility pH 7.4 (mg/L), Formula (XV).

T1 sequence (P49137 46-400 limits assumed): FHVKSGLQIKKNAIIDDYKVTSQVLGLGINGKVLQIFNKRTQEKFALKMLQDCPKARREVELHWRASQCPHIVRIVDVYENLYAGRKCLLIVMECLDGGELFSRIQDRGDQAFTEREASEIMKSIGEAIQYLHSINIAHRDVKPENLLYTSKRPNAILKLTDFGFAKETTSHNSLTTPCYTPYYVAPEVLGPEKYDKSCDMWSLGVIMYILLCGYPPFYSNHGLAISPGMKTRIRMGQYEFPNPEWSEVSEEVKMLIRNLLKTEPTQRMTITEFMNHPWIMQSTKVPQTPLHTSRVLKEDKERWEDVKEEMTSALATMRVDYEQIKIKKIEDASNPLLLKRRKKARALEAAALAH

On to `CNC(=O)c1ccc(-c2ncc(F)c(-c3cc4c([nH]3)C3(CCNCC3)CNC4=O)n2)cc1` [4—4, 4-(5-fluoro-4-(4′-oxo-1′,4′,5′,6′-tetrahydrospiro[piperidine-4,7′-pyrrolo[3,2-c]pyridine]-2′-yl)pyrimidin-2-yl)-N-methylbenzamide], for which the EC50 in data set [1] (setting [3]) is 3.16 to 31.6 nM. Further, the solubility at 24 h in data set [2] (setting [4]) lay within 20 to 50 mg/L (≈ 46 to 115 µM).
Turning to `O=C1NCC2(CCNCC2)c2[nH]c(-c3nc(-c4ccc(Cl)cc4F)ncc3F)cc21` [4—5, 2′-(2-(4-chloro-2-fluorophenyl)-5-fluoropyrimidin-4-yl)-5′,6′-dihydrospiro[piperidine-4,7′-pyrrolo[3,2-c]pyridin]-4′(1′H)-one], in data set [1] (setting [3]), the EC50 is 3.16 to 31.6 nM. In addition, in data set [2] (setting [4]), the solubility at 24 h was ≥ 50 mg/L.
The corresponding values for `O=C1NCC2(CCCNC2)c2[nH]c(-c3ccnc(-c4ccc5c(c4)OCO5)n3)cc21` (stereo not shown) [5—2, 2′-(2-(benzo[d][1,3]dioxol-5-yl)pyrimidin-4-yl)-5′,6′-dihydrospiro[piperidine-3,7′-pyrrolo[3,2-c]pyridin]-4′(1′H)-one] are 3.16 to 31.6 nM and ≥ 50 mg/L.
The corresponding values for `O=C1NCC2(CCNC2)c2[nH]c(-c3ccnc(-c4ccc5c(c4)OCO5)n3)cc21` (stereo not shown) [6—2, 2′-(2-(benzo[d][1,3]dioxol-5-yl)pyrimidin-4-yl)-5′,6′-dihydrospiro[pyrrolidine-3,7′-pyrrolo[3,2-c]pyridin]-4′(1′H)-one] are 3.16 to 31.6 nM and ≥ 50 mg/L.
Regarding `Cc1ccc(-c2nccc(-c3cc4c([nH]3)C3(CCNC3)CNC4=O)n2)cc1` (stereo not shown) [6—3, 2′-(2-p-tolylpyrimidin-4-yl)-5′,6′-dihydrospiro[pyrrolidine-3,7′-pyrrolo[3,2-c]pyridin]-4′(1′H)-one], the EC50 in data set [1] (setting [3]) is 3.16 to 31.6 nM. In addition, the solubility at 24 h in data set [2] (setting [4]) is ≥ 50 mg/L.
The corresponding values for `O=C1NCC2(CCNC2)c2[nH]c(-c3ccnc(-c4cccc(F)c4)n3)cc21` (stereo not shown) [6—4, 2′-(2-(3-fluorophenyl)pyrimidin-4-yl)-5′,6′-dihydrospiro[pyrrolidine-3,7′-pyrrolo[3,2-c]pyridin]-4′(1′H)-one] are 3.16 to 31.6 nM and 20 to 50 mg/L (≈ 55 to 138 µM).
In the same order, the values of `O=C1NCC2(CCNC2)c2[nH]c(-c3ccnc(-c4cc5ccccc5o4)c3)cc21` (stereo not shown) [6—5, 2′-(2-(benzofuran-2-yl)pyridin-4-yl)-5′,6′-dihydrospiro[pyrrolidine-3,7′-pyrrolo[3,2-c]pyridin]-4′(1′H)-one] are 3.16 to 31.6 nM and ≥ 50 mg/L.
In the same order, the values of `O=C1NCC2(CNCCO2)c2[nH]c(-c3ccnc(-c4cc5ccccc5o4)n3)cc21` (stereo not shown) [7—1, 2′-(2-(benzofuran-2-yl)pyrimidin-4-yl)-5′,6′-dihydrospiro[morpholine-2,7′-pyrrolo[3,2-c]pyridin]-4′(1′H)-one] are 31.6 to 316 nM and ≥ 50 mg/L.
On to `O=C1NCC2(CCNCC2)c2[nH]c(-c3ccnc(-c4cnc5ccccc5c4)c3)cc21` [8—2, 2′-(2-(quinolin-3-yl)pyridin-4-yl)-5′,6′-dihydrospiro[piperidine-4,7′-pyrrolo[3,2-c]pyridin]-4′(1′H)-one], for which the EC50 in data set [1] (setting [3]) is ≤ 3.16 nM. In addition, in data set [2] (setting [4]), the solubility at 24 h lay within 20 to 50 mg/L (≈ 48.8 to 122 µM).
In the same order, the values of `O=C1NCC2(CCNCC2)c2[nH]c(-c3ccnc(-c4ccc5c(c4)OCO5)c3)cc21` [8—3, 2′-(2-(benzo[d][1,3]dioxol-5-yl)pyridin-4-yl)-5′,6′-dihydrospiro[piperidine-4,7′-pyrrolo[3,2-c]pyridin]-4′(1′H)-one] are ≤ 3.16 nM and ≥ 50 mg/L.
For `O=C1NCC2(CCNCC2)c2[nH]c(-c3ccnc(-c4nc5ccccc5s4)n3)cc21` [9—2, 2′-(2-(benzo[d]thiazol-2-yl)pyrimidin-4-yl)-5′,6′-dihydrospiro[piperidine-4,7′-pyrrolo[3,2-c]pyridin]-4′(1′H)-one], the EC50 in data set [1] (setting [3]) was 3.16 to 31.6 nM. Moreover, the solubility at 24 h in data set [2] (setting [4]) is ≥ 50 mg/L.
Regarding `O=C1NCC2(CCNCC2)c2[nH]c(-c3ccnc(-c4nccs4)n3)cc21` [9—3, 2′-(2-(thiazol-2-yl)pyrimidin-4-yl)-5′,6′-dihydrospiro[piperidine-4,7′-pyrrolo[3,2-c]pyridin]-4′(1′H)-one], in data set [1] (setting [3]), the EC50 is 31.6 to 316 nM. In addition, in data set [2] (setting [4]), the solubility at 24 h was ≥ 50 mg/L.
With `NCC(=O)N1CCC2(CC1)CNC(=O)c1cc(-c3ccnc(-c4cc5ccccc5o4)n3)[nH]c12` [10—1, 1-(2-aminoacetyl)-2′-(2-(benzofuran-2-yl)pyrimidin-4-yl)-5′,6′-dihydrospiro[piperidine-4,7′-pyrrolo[3,2-c]pyridin]-4′(1′H)-one], the EC50 in data set [1] (setting [3]) is 31.6 to 316 nM. Also, the solubility at 24 h in data set [2] (setting [4]) was ≥ 50 mg/L.
In the same order, the values of `O=C1NCC2(CCNCC2)c2[nH]c(-c3ccnc(-c4cnc(NC5CCCC5)nc4)n3)cc21` [11—1, 2′-(2′-(cyclopentylamino)-2,5′-bipyrimidin-4-yl)-5′,6′-dihydrospiro[piperidine-4,7′-pyrrolo[3,2-c]pyridin]-4′(1′H)-one] are ≤ 3.16 nM and ≥ 50 mg/L.
Take `Cc1ccc(C(=O)Nc2cc(-c3cc4c([nH]3)C3(CCNCC3)CNC4=O)ccn2)cc1C` [12—2, 3,4-dimethyl-N-(4-(4′-oxo-1′,4′,5′,6′-tetrahydrospiro[piperidine-4,7′-pyrrolo[3,2-c]pyridine]-2′-yl)pyridin-2-yl)benzamide]: the EC50 in data set [1] (setting [3]) is ≤ 3.16 nM. In data set [2] (setting [4]), the solubility at 24 h is ≥ 50 mg/L.
In the same order, the values of `O=C(Nc1nccc(-c2cc3c([nH]2)C2(CCCNC2)CNC3=O)n1)c1cccc(OC(F)(F)F)c1` (stereo not shown) [13—2, N-(4-(4′-oxo-1′,4′,5′,6′-tetrahydrospiro[piperidine-3,7′-pyrrolo[3,2-c]pyridine]-2′-yl)pyrimidin-2-yl)-3-(trifluoromethoxy)benzamide] are 31.6 to 316 nM and 20 to 50 mg/L (≈ 41.1 to 103 µM).
Consider `O=C1NCC2(CCNCC2)c2[nH]c(-c3ccnc(-c4cnc5ccccc5c4)c3)cc21` [16_1 Formula (I)], for which the EC50 in data set [1] (setting [5]) is 1.26 nM. Besides, the solubility at 24 h in data set [2] (setting [6]) amounted to 35 mg/L.
On to `O=C1NCC2(CCNCC2)c2[nH]c(-c3ccnc(-c4cnc5ccccc5c4)n3)cc21` [16_2 Formula (I)], for which the “pEC50, Formula (I)” value in data set [1] (setting [7]) is 8.2. Besides, the solubility at 24 h in data set [2] (setting [6]) is 23 mg/L.
As for `O=C1NCC2(CCNCC2)c2[nH]c(-c3ccnc(-c4cccc(F)c4)n3)cc21` [16_3 Formula (I)], the EC50 in data set [1] (setting [5]) is 7.94 nM. In addition, the solubility at 24 h in data set [2] (setting [6]) is 36 mg/L.
On to `O=C1NCCc2[nH]c(-c3ccnc(-c4cccc(F)c4)n3)cc21` [16_3 Formula (XV)], for which the EC50 in data set [1] was 501 nM. In addition, the solubility at 24 h in data set [2] (setting [8]) was 32 mg/L.
Consider `O=C1NCC2(CCNCC2)c2[nH]c(-c3ccnc(-c4ccccc4F)n3)cc21` [16_4 Formula (I)], for which, in data set [1] (setting [5]), the EC50 is 31.6 nM. Also, the solubility at 24 h in data set [2] (setting [6]) is 36 mg/L.
For the compound `O=C1NCCc2[nH]c(-c3ccnc(-c4ccccc4F)n3)cc21` [16_4 Formula (XV)], in data set [1] (Table 1, comparison compound of Formula (XV) without spiro ring, MK2 IMAP assay, read-out: pEC50, Formula (XV) (converted)), the EC50 is 1000 nM. Moreover, the solubility at 24 h in data set [2] (setting [8]) was 44 mg/L.
Consider `O=C1NCC2(CCNCC2)c2[nH]c(-c3ccnc(-c4ccc5c(c4)OCO5)n3)cc21` [16_5 Formula (I)], for which the “pEC50, Formula (I)” value in data set [1] (setting [7]) was found to be 8.4. For the same compound, the solubility at 24 h in data set [2] (setting [6]) amounted to 37 mg/L.

(Values after patent publication US8772286B2, “MK2 inhibitors” (Merck Sharp & Dohme B.V., priority 2009, dated 2014).)
